Tests used:
[1] = biological target: T1, Human Calpain 2/NS1 (Homo sapiens, UniProt P17655); assay: Calpain inhibition continuous fluorescence (FRET) assay, Human Calpain 2/NS1; assay type: biochemical; conditions: read-out: Human Calpain 2/NS1 IC50
T1 sequence (P17655 1-700): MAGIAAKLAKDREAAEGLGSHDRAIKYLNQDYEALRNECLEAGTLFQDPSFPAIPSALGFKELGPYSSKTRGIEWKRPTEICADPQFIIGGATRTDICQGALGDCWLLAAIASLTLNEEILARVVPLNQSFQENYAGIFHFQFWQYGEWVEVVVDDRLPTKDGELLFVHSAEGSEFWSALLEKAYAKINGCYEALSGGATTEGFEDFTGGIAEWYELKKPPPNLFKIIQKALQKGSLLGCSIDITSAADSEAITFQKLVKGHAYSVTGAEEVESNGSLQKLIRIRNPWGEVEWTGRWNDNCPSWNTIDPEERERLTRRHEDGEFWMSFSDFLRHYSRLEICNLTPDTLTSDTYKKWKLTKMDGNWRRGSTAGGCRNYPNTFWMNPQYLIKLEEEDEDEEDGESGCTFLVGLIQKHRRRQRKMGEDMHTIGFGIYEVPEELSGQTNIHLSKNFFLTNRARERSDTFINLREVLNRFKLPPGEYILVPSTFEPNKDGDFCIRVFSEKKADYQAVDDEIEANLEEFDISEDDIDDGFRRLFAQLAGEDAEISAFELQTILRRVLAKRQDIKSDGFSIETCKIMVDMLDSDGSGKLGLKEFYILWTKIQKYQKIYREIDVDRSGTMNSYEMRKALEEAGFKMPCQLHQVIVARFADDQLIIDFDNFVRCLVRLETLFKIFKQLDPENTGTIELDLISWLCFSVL
T1 sequence (P04632 1-268 partner): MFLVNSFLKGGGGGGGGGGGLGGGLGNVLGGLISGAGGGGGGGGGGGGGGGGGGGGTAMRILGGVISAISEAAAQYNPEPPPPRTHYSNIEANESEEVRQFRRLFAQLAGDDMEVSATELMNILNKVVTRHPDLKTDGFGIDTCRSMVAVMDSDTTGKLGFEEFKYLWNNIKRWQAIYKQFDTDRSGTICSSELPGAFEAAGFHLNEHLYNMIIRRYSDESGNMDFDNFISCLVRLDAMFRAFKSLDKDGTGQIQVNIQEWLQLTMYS
In short: (§1)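 Continuous FRET read (ex 490/em 520 nm, 10 min) of calpain 1, 2 or 9 cleaving an internally quenched 5-FAM peptide, triggered by substrate with CaCl2 after enzyme–inhibitor incubation at ambient 25 °C, pH 7.5 Tris/NaCl/DTT buffer. IC50 from initial rates (1-5 min) via 4-parameter fit.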

[2] = test system: Calpain activity in SH-SY5Y cells (SBDP-150); assay: SH-SY5Y Spectrin western blot assay (SBDP-150 breakdown product, A23187-induced); assay type: cell-based; conditions: Homo sapiens; SH-SY5Y cells, A23187-induced SBDP-150, western blot; read-out: SH-SY5Y Spectrin IC50
[3] = test system: Calpain activity in SH-SY5Y cells; assay: SH-SY5Y + AMC fluorescence assay (Suc-LLVY-AMC substrate); assay type: cell-based; conditions: read-out: SH-SY5Y + AMC IC50
[4] = biological target: T2, Human Calpain 9/NS1 (Homo sapiens, UniProt O14815); assay: Calpain inhibition continuous fluorescence (FRET) assay, Human Calpain 9/NS1; assay type: biochemical; conditions: read-out: Human Calpain 9/NS1 IC50
T2 sequence (O14815 1-690): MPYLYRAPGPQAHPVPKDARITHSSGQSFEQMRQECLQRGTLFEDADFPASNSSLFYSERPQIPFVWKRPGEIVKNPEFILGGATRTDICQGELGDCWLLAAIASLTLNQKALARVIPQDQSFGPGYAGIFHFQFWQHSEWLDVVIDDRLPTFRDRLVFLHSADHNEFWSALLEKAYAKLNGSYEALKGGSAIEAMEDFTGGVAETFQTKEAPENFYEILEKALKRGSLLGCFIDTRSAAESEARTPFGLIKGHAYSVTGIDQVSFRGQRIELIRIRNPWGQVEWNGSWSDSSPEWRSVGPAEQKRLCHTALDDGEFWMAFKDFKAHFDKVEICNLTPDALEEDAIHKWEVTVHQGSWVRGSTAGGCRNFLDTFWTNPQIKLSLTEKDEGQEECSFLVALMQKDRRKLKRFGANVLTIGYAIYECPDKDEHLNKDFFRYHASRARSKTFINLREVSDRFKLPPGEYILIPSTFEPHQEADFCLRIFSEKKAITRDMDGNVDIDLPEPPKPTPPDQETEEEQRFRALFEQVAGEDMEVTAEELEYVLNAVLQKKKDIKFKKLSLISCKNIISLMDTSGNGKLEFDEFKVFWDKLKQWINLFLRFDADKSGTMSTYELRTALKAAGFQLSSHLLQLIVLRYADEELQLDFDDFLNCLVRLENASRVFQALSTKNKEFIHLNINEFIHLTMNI
T2 sequence (P04632 1-268 partner): T1 sequence (P04632 1-268 partner)
In short: as §1

[5] = biological target: T3, Human Calpain 1/NS1 (Homo sapiens, UniProt P07384); assay: Calpain inhibition continuous fluorescence (FRET) assay, Human Calpain 1/NS1; assay type: biochemical; conditions: read-out: Human Calpain 1/NS1 IC50
T3 sequence (P07384 1-714): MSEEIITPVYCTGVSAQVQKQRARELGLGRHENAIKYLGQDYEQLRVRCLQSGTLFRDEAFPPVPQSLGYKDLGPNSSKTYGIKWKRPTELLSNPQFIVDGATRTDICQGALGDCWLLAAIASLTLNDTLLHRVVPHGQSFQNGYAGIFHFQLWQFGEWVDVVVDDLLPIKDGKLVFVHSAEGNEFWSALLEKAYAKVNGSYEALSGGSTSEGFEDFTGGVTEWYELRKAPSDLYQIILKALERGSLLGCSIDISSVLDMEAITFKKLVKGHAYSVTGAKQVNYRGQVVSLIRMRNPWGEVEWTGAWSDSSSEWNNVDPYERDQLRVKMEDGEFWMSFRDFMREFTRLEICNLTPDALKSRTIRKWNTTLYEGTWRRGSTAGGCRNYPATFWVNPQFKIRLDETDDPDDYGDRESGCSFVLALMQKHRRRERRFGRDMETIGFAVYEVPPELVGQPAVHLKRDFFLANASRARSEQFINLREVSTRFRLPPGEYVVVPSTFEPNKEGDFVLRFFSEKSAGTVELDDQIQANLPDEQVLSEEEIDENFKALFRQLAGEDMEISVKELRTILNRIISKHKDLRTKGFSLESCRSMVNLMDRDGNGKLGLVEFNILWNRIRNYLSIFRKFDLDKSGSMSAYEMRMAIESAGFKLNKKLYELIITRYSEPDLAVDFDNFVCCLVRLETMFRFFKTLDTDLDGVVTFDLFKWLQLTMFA
T3 sequence (P04632 1-268 partner): T1 sequence (P04632 1-268 partner)
In short: as §1

| IC50 [1] [µM] | IC50 [2] [µM] | IC50 [3] [µM] | IC50 [4] [µM] | IC50 [5] [µM] | SMILES |
| --- | --- | --- | --- | --- | --- |
| < 3 | < 10 | < 10 | < 3 | < 3 | Cc1ccc(F)c(-c2nn(C(F)F)cc2C(=O)NC(Cc2ccccc2)C(=O)C(N)=O)c1 (stereo not drawn) [Compound 564, N-(4-amino-3,4-dioxo-1-phenylbutan-2-yl)-1-(difluoromethyl)-3-(2-fluoro-5-methylphenyl)-1H-pyrazole-4-carboxamide] |
| < 3 | < 10 | > 25 | < 3 | < 3 | Cc1cc(C)cc(-c2nn(C(F)F)cc2C(=O)NC(Cc2ccccc2)C(=O)C(N)=O)c1 (stereo not drawn) [Compound 565, N-(4-amino-3,4-dioxo-1-phenylbutan-2-yl)-1-(difluoromethyl)-3-(3,5-dimethylphenyl)-1H-pyrazole-4-carboxamide] |
| < 3 | 10 to 25 | < 10 | < 3 | < 3 | Cc1ccc(F)cc1-c1nn(C(F)F)cc1C(=O)NC(Cc1ccccc1)C(=O)C(N)=O (stereo not drawn) [Compound 566, N-(4-amino-3,4-dioxo-1-phenylbutan-2-yl)-1-(difluoromethyl)-3-(5-fluoro-2-methylphenyl)-1H-pyrazole-4-carboxamide] |
| < 3 | < 10 | < 10 | < 3 | < 3 | Cn1cc(C(=O)NC(Cc2ccccc2)C(=O)C(N)=O)c(-c2ccc3c(c2)OCO3)n1 (stereo not drawn) [Compound 567, N-(4-amino-3,4-dioxo-1-phenylbutan-2-yl)-3-(benzo[d][1,3]dioxol-5-yl)-1-methyl-1H-pyrazole-4-carboxamide] |
| < 3 | > 25 | < 10 | < 3 | < 3 | Cn1cc(C(=O)NC(Cc2ccccc2)C(=O)C(N)=O)c(-c2ccnn2C)n1 (stereo not drawn) [Compound 568, N-(4-amino-3,4-dioxo-1-phenylbutan-2-yl)-1,2′-dimethyl-1H,2′H-[3,3′-bipyrazole]-4-carboxamide] |
| < 3 | > 25 | 10 to 25 | < 3 | < 3 | Cn1cc(C(=O)NC(Cc2ccccc2)C(=O)C(N)=O)c(-c2cccc3ccccc23)n1 (stereo not drawn) [Compound 569, N-(4-amino-3,4-dioxo-1-phenylbutan-2-yl)-1-methyl-3-(naphthalen-1-yl)-1H-pyrazole-4-carboxamide] |
| < 3 | > 25 | > 25 | < 3 | < 3 | Cn1cc(C(=O)NC(Cc2ccccc2)C(=O)C(N)=O)c(-c2cccc3c2OCCO3)n1 (stereo not drawn) [Compound 570, N-(4-amino-3,4-dioxo-1-phenylbutan-2-yl)-3-(2,3-dihydrobenzo[b][1,4]dioxin-5-yl)-1-methyl-1H-pyrazole-4-carboxamide] |
| < 3 | > 25 | > 25 | < 3 | < 3 | Cn1cc(C(=O)NC(Cc2ccccc2)C(=O)C(N)=O)c(-c2ccc3ccccc3c2)n1 (stereo not drawn) [Compound 571, N-(4-amino-3,4-dioxo-1-phenylbutan-2-yl)-1-methyl-3-(naphthalen-2-yl)-1H-pyrazole-4-carboxamide] |
| < 3 | > 25 | < 10 | < 3 | < 3 | Cn1cc(C(=O)NC(Cc2ccccc2)C(=O)C(N)=O)c(-c2ccccc2C(F)F)n1 (stereo not drawn) [Compound 572, N-(4-amino-3,4-dioxo-1-phenylbutan-2-yl)-3-(2-(difluoromethyl)phenyl)-1-methyl-1H-pyrazole-4-carboxamide] |
| < 3 | > 25 | < 10 | < 3 | < 3 | Cn1cc(C(=O)NC(Cc2ccccc2)C(=O)C(N)=O)c(C2CCCCC2)n1 (stereo not drawn) [Compound 573, N-(4-amino-3,4-dioxo-1-phenylbutan-2-yl)-3-cyclohexyl-1-methyl-1H-pyrazole-4-carboxamide] |
| < 3 | > 25 | > 25 | < 3 | < 3 | C#CC[C@H](NC(=O)c1cn(C)nc1-c1ccccc1F)C(=O)C(N)=O [Compound 574, (S)—N-(1-amino-1,2-dioxohex-5-yn-3-yl)-3-(2-fluorophenyl)-1-methyl-1H-pyrazole-4-carboxamide] |
| < 3 | < 10 | > 25 | < 3 | < 3 | NC(=O)C(=O)C(Cc1ccccc1)NC(=O)c1cn(C(F)F)nc1-c1ccc2cccnc2c1 (stereo not drawn) [Compound 575, N-(4-amino-3,4-dioxo-1-phenylbutan-2-yl)-1-(difluoromethyl)-3-(quinolin-7-yl)-1H-pyrazole-4-carboxamide] |
| < 3 | < 10 | < 10 | < 3 | < 3 | NC(=O)C(=O)C(Cc1ccccc1)NC(=O)c1cn(C(F)F)nc1-c1cccc2ncccc12 (stereo not drawn) [Compound 576, N-(4-amino-3,4-dioxo-1-phenylbutan-2-yl)-1-(difluoromethyl)-3-(quinolin-5-yl)-1H-pyrazole-4-carboxamide] |
| < 3 | < 10 | < 10 | < 3 | < 3 | NC(=O)C(=O)C(Cc1ccccc1)NC(=O)c1cn(C(F)F)nc1-c1ccc2cnccc2c1 (stereo not drawn) [Compound 577, N-(4-amino-3,4-dioxo-1-phenylbutan-2-yl)-1-(difluoromethyl)-3-(isoquinolin-6-yl)-1H-pyrazole-4-carboxamide] |
| < 3 | < 10 | < 10 | < 3 | < 3 | NC(=O)C(=O)C(Cc1ccccc1)NC(=O)c1nsnc1-c1cccc2c1OC(F)(F)O2 (stereo not drawn) [Compound 578, N-(4-amino-3,4-dioxo-1-phenylbutan-2-yl)-4-(2,2-difluorobenzo[d][1,3]dioxol-4-yl)-1,2,5-thiadiazole-3-carboxamide] |
